Measurements published in US9914730B2, “Azaquinazoline inhibitors of Atypical protein Kinase C” (Ignyta, Inc., priority 2012, dated 2018).

Biological target: T1, full-length human PKCι (Homo sapiens, UniProt P41743)
T1 construct: Recombinant, full-length human PKCι expressed in Sf21 insect cells is also commercially available; purchased; host or cells: Sf21 insect cells
T1 sequence (P41743 1-596): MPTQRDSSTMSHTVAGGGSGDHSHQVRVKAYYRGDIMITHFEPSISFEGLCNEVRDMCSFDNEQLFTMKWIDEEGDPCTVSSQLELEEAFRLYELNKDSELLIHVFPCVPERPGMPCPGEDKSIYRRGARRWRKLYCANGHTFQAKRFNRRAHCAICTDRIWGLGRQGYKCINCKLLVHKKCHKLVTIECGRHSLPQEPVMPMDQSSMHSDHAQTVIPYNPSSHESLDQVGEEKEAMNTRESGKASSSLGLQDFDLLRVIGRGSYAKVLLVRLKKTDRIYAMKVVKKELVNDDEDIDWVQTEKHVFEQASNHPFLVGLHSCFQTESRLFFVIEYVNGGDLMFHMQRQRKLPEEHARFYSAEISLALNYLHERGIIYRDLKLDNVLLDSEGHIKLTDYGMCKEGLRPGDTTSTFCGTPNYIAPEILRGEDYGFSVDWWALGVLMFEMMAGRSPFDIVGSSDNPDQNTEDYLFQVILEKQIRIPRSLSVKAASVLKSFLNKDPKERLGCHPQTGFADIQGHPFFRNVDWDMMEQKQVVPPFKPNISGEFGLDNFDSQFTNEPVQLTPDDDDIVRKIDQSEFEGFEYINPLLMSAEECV
Experiment: PKCι IC50 IMAP assay, full-length PKCι at 150 μM ATP
Format: biochemical
Settings: read-out: IC50 in IMAP assay against full length PKCi at 150 μM ATP
In short: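 Phosphorylation of a 5FAM-tagged PKCε pseudopeptide-derived substrate (100 nM) by full-length recombinant human PKCι was monitored by IMAP fluorescence polarisation. ATP was held at 150 μM, five times its apparent KM, with 60 min room-temperature incubation.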

IC50 [µM]	SMILES
10 to 40	c1cc(-c2nc(N[C@@H]3CCOC3)c3ccncc3n2)ccn1 [Example 42, N-[(3R)-oxolan-3-yl]-2-(pyridin-4-yl)-pyrido[3,4-d]-pyrimidin-4-amine]
< 0.1	COc1cncc2nc(-c3ccncc3)nc(NC[C@@H](N)[C@H](F)c3ccccc3)c12 [Example 47, N-[(2R,3R)-2-amino-3-fluoro-3-phenylpropyl]-5-methoxy-2-(pyridin-4-yl)pyrido[3,4-d]-pyrimidin-4-amine]
1 to 10	COc1cncc2nc(-c3ccncc3)nc(N3CCN(CC(N)=O)[C@@H](Cc4ccccc4)C3)c12 [Example 48, 2-[(2S)-2-benzyl-4-[5-methoxy-2-(pyridin-4-yl)-pyrido[3,4-d]-pyrimidin-4-yl]-piperazin-1-yl]acetamide]
1 to 10	COc1cncc2nc(-c3ccncc3)nc(N3CCNC(CF)C3)c12 (stereo not shown) [Example 54, 3-(fluoromethyl)-1-[5-methoxy-2-(pyridin-4-yl)-pyrido[3,4-d]-pyrimidin-4-yl]-piperazine]
1 to 10	CC(C)NC(=O)C1CCN(c2nc(-c3ccncc3)nc3cnccc23)CC1 [Example 55, N-(propan-2-yl)-1-[2-(pyridin-4-yl)-pyrido[3,4-d]-pyrimidin-4-yl]-piperidine-4-carboxamide]
1 to 10	CC[C@H]1CN(c2nc(-c3ccncc3)nc3cnccc23)CCN1 [Example 61, (3S)-3-ethyl-1-[2-(pyridin-4-yl)-pyrido[3,4-d]-pyrimidin-4-yl]-piperazine]
10 to 40	Fc1cnccc1-c1nc(N2CCNC(C(F)(F)F)C2)c2ccncc2n1 (stereo not shown) [Example 66, 1-[2-(3-fluoropyridin-4-yl)pyrido[3,4-d]-pyrimidin-4-yl]-3-(trifluoromethyl)-piperazine]
10 to 40	c1ccc(C2CN(c3nc(-c4ccncc4)nc4cnccc34)CCN2)cc1 (stereo not shown) [Example 69, 3-phenyl-1-[2-(pyridin-4-yl)-pyrido[3,4-d]-pyrimidin-4-yl]-piperazine]
1 to 10	COc1cncc2nc(-c3ccncc3)nc(N3CCOCC3)c12 [Example 70, 4-[5-methoxy-2-(pyridin-4-yl)-pyrido[3,4-d]-pyrimidin-4-yl]-morpholine]
1 to 10	C#CC1CN(c2nc(-c3ccncc3)nc3cnccc23)CCN1 (stereo not shown) [Example 71, 3-ethynyl-1-[2-(pyridin-4-yl)-pyrido[3,4-d]-pyrimidin-4-yl]-piperazine]
< 0.1	COc1cncc2nc(-c3ccncc3)nc(N3CCN[C@@H](C(F)c4ccccc4)C3)c12 (stereo partly drawn) [Example 74, (3R)-3-[fluoro(phenyl)-methyl]-1-[5-methoxy-2-(pyridin-4-yl)-pyrido[3,4-d]-pyrimidin-4-yl]-piperazine]
10 to 40	CC(=O)N[C@H](CNc1nc(-c2ccncc2)nc2cnccc12)Cc1ccccc1 [Example 79, N—[(S)-1-Benzyl-2-(2-pyridin-4-yl-pyrido[3,4-d]pyrimidin-4-ylamino)-ethyl]-acetamide]

Further lines, the molecule ahead of its results:

SMILES	IC50 [µM]
COc1cncc2nc(-c3ccncc3)nc(N3CCNC(C(F)(F)F)C3)c12 (stereo not shown) [Example 43, 1-[5-methoxy-2-(pyridin-4-yl)pyrido[3,4-d]-pyrimidin-4-yl]-3-(trifluoromethyl)-piperazine]	1 to 10
COc1cncc2nc(-c3ccncc3)nc(N3CCN[C@@H](C)C3)c12 [Example 44, (3S)-1-[5-methoxy-2-(pyridin-4-yl)-pyrido[3,4-d]-pyrimidin-4-yl]-3-methylpiperazine]	0.1 to 1
COc1cncc2nc(-c3ccncc3)nc(N3CC[C@@H](N)C3)c12 [Example 45, (3R)-1-[5-methoxy-2-(pyridin-4-yl)-pyrido[3,4-d]-pyrimidin-4-yl]-pyrrolidin-3-amine]	1 to 10
COc1cncc2nc(-c3ccncc3)nc(N3CCN[C@@H](CO)C3)c12 [Example 46, [(2R)-4-[5-methoxy-2-(pyridin-4-yl)-pyrido[3,4-d]-pyrimidin-4-yl]-piperazin-2-yl]-methanol]	< 0.1
COc1cncc2nc(-c3ccncc3)nc(NC[C@H](Cc3ccccc3)N(C)C)c12 [Example 49, [(2S)-1-{[5-methoxy-2-(pyridin-4-yl)-pyrido[3,4-d]-pyrimidin-4-yl]-amino}-3-phenylpropan-2-yl]dimethylamine]	1 to 10
COc1cncc2nc(-c3ccncc3)nc(N3CC[C@H](O)C3)c12 [Example 50, (3S)-1-[5-methoxy-2-(pyridin-4-yl)-pyrido[3,4-d]-pyrimidin-4-yl]-pyrrolidin-3-ol]	10 to 40
COc1cncc2nc(-c3ccncc3)nc(N3C[C@@H](C)N[C@@H](C)C3)c12 [Example 51, 1-[5-methoxy-2-(pyridin-4-yl)-pyrido[3,4-d]-pyrimidin-4-yl]-3,5-cis-dimethylpiperazine]	1 to 10
COc1cncc2nc(-c3ccncc3)nc(N3CCN[C@H](C)C3)c12 [Example 52, (3R)-1-[5-methoxy-2-(pyridin-4-yl)-pyrido[3,4-d]-pyrimidin-4-yl]-3-methylpiperazine]	1 to 10
COc1cncc2nc(-c3ccncc3)nc(N3CC[C@H](N)C3)c12 [Example 53, (3S)-1-[5-methoxy-2-(pyridin-4-yl)-pyrido[3,4-d]-pyrimidin-4-yl]-pyrrolidin-3-amine]	0.1 to 1
NC(=O)N1CCN(c2nc(-c3ccncc3)nc3cnccc23)CC1 [Example 56, 4-[2-(pyridin-4-yl)-pyrido[3,4-d]-pyrimidin-4-yl]-piperazine-1-carboxamide]	10 to 40
O=C(NC1CCCCC1)N1CCN(c2nc(-c3ccncc3)nc3cnccc23)CC1 [Example 57, N-cyclohexyl-4-[2-(pyridin-4-yl)-pyrido[3,4-d]-pyrimidin-4-yl]-piperazine-1-carboxamide]	10 to 40
COc1cncc2nc(-c3ccncc3)nc(N3CCNC(CC#N)C3)c12 (stereo not shown) [Example 58, 2-{4-[5-methoxy-2-(pyridin-4-yl)-pyrido[3,4-d]-pyrimidin-4-yl]-piperazin-2-yl]-acetonitrile]	0.1 to 1
FC(F)(F)C1CN(c2nc(-c3ccncc3)nc3cnccc23)CCN1 (stereo not shown) [Example 59, 1-[2-(pyridin-4-yl)-pyrido[3,4-d]-pyrimidin-4-yl]-3-(trifluoromethyl)-piperazine]	10 to 40
FC(F)(F)C1CN(c2nc(-c3ccncc3)nc3c(Cl)nccc23)CCN1 (stereo not shown) [Example 60, 1-[8-chloro-2-(pyridin-4-yl)-pyrido[3,4-d]-pyrimidin-4-yl]-3-(trifluoromethyl)-piperazine]	1 to 10
CC(C)[C@H]1CN(c2nc(-c3ccncc3)nc3cnccc23)CCN1 [Example 62, (3S)-3-(propan-2-yl)-1-[2-(pyridin-4-yl)-pyrido[3,4-d]-pyrimidin-4-yl]-piperazine]	1 to 10
COc1cncc2nc(-c3ccncc3F)nc(N3CCNCC3)c12 [Example 63, 1-[2-(3-fluoropyridin-4-yl)-5-methoxypyrido-[3,4-d]pyrimidin-4-yl]piperazine]	0.1 to 1
c1cc(-c2nc(N3CCN4CCC[C@@H]4C3)c3ccncc3n2)ccn1 [Example 64, 4-{4-[(8aR)-octahydropyrrolo-[1,2-a]piperazin-2-yl]pyrido[3,4-d]-pyrimidin-2-yl}-pyridine]	10 to 40
Fc1cnccc1-c1nc(N2CCNCC2)c2ccncc2n1 [Example 65, 1-[2-(3-fluoropyridin-4-yl)pyrido[3,4-d]-pyrimidin-4-yl]-piperazine]	10 to 40
c1cc(-c2nc(N3CCC4NCC[C@H]4C3)c3ccncc3n2)ccn1 (stereo partly drawn) [Example 67, 4-{4-[(3aS)-octahydro-1H-pyrrolo[3,2-c]-pyridin-5-yl]-pyrido[3,4-d]-pyrimidin-2-yl}-pyridine]	10 to 40
Clc1nccc2c(N3CCN[C@@H](Cc4ccccc4)C3)nc(-c3ccncc3)nc12 [Example 68, (3S)-3-benzyl-1-[8-chloro-2-(pyridin-4-yl)pyrido[3,4-d]-pyrimidin-4-yl]-piperazine]	0.1 to 1
COc1cncc2nc(-c3ccncc3)nc(N3CCOC(Cc4ccccc4)C3)c12 (stereo not shown) [Example 72, 2-benzyl-4-[5-methoxy-2-(pyridin-4-yl)pyrido[3,4-d]-pyrimidin-4-yl]-morpholine]	1 to 10
OCC1CN(c2nc(-c3ccncc3)nc3c(Cl)nccc23)C1 [Example 73, {1-[8-chloro-2-(pyridin-4-yl)-pyrido[3,4-d]-pyrimidin-4-yl]-azetidin-3-yl}-methanol]	10 to 40
OC1CCN(c2nc(-c3ccncc3)nc3c(Cl)nccc23)CC1 [Example 75, 1-[8-chloro-2-(pyridin-4-yl)-pyrido[3,4-d]-pyrimidin-4-yl]-piperidin-4-ol]	1 to 10
COc1cncc2nc(-c3ccncc3)nc(N3CCN[C@@H](C(F)c4ccccc4)C3)c12 (stereo partly drawn) [Example 76, (3R)-3-[fluoro(phenyl)-methyl]-1-[5-methoxy-2-(pyridin-4-yl)-pyrido[3,4-d]-pyrimidin-4-yl]-piperazine]	< 0.1
O=CN[C@H](CNc1nc(-c2ccncc2)nc2cnccc12)Cc1ccccc1 [Example 78, N—[(S)-1-Benzyl-2-(2-pyridin-4-yl-pyrido[3,4-d]pyrimidin-4-ylamino)-ethyl]-formamide]	1 to 10
